Data set [1] deals with COX-2. The data set is classed as cell-based, human.
Description: Isolated PBMC's from various groups were incubated for 18 hours at which time all groups were treated with 10 ng/mL lipopolysaccharaide (LPS) 055:B5 (Sigma, St. Louis, Mo.) for 6 hours RT-PCR samples were run in a blinded fashion. Extraction of mRNA was with an RNA extraction kit (Qiagen). Total mRNA (1 μg) was reverse transcribed in an RT mastermix (50 mM KCl, 10 mM tris-HCl, 5 mM MgCl2, 1 mM dNTP, 2.5 mM oligo d(T), 50 units of RT, 20 units of RNAse inhibitor, and nuclease free water; all reagents from Perkin-Elmer, Foster City, Calif.) with an initial 10 minute incubation at room temperature and then 42° C. for 10 minutes. […] The cDNA was run on a 1% agarose gel with 3 μL of ethidium bromide (10 mg/mL solution) and bands were visualized under UV transillumination and recorded in an image acquisition processing and analysis program (Eagle Eye 2, Stratagene).
NS-398 (N-[2-(cyclohexyloxy)-4-nitrophenyl]-methanesulfonamide) was obtained from Cayman Chemical (Ann Arbor, Mich.) and prepared in DMSO at a concentration of 1 mM. Serial dilutions were made to co-culture cells with a final concentration of 10 mM NS-398 in a 0.1% DMSO. […]
To further evaluate the expression of COX-2, samples of LPS stimulated PBMC's were evaluated from control and injured subjects as well as samples co-incubated with 10 μM NS-398.
Data set [2] is described as follows: Body weight and splenocyte counts 7 days after trauma (NS-398 twice a day over 7 days). The data set is classed as in vivo, BALB/c mice. Conditions: for Body Wt.: day 7. The protocol:
Animals, Experimental Protocol, NS-398 preparation were as described in Example I. Macrophages were prepared as described initially under “Macrophage Preparation ” in Example I. After lysis of erythrocytes with ammonium chloride solution and centrifugation as described in Example I, macrophages were further prepared by resuspending the pellet in RPMI-1640 (Gibco BRL, Life Technologies Inc) containing 2 mmol/L L-glutamine, 100 U/mL penicillin, 100 μg/mL streptomycin, 0.25 μg/mL amphotericin B, and 10% heat-inactivated fetal calf serum (Gibco BRL, Life Technologies Inc), counted via hemocytometer and diluted to a final concentration of 5×10^6 cells/mL, and plated in 96 well plates in a volume of 0.2 mL per well. After allowing macrophages to adhere for 2 hours, the remaining cells were suctioned off and the macrophages were cultured in the +/−1 ng LPS 055:B5 (Sigma, St. Louis, Mo.) per mL at 37° C. in 5% carbon dioxide incubators. Supernatants were harvested at 24 hours and stored at −70° C. until analysis for batch enzyme-linked immunosorbent assay processing to determine prostaglandin and cytokine production.
Body weight and splenocyte recovery after injury±NS-398 were recorded.
BALB/C mice (n=8/group) were given 10mg/kg NS398 intraperitoneally BID for 7 days, starting immediately after sham injury or trauma (femur fracture+40% hemorrhage). Four groups, sham+placebo (C); sham+NS398 (CN); trauma+placebo (T); or trauma+NS398 (TN) were studied. On day 7 after trauma, mice were sacrificed and splenic macrophages evaluated for PGE2, TNF-α and NO production (via Student's t-test). In a separate study, mice (n=10-11/group) were traumatized and given NS398 for 7 days. On day 7, cecal ligation and puncture was performed, and mice evaluated for survival over 3 weeks (via Log-rank test).

The subject of data set [3] is COX-2 mRNA. Nature of the data set: COX-2 mRNA in splenic macrophages by RT-PCR (NS-398 over 7 days). The data set is classed as in vivo, BALB/c mice. Particulars: trauma + NS-398 over 7 days. The protocol: Isolated splenic macrophages were treated with LPS (10 ng/mL) for 6 hours. Extraction of mRNA was done with an RNA extraction kit (Qiagen, Inc.).
For data set [4], the system named is NF-κB. Put plainly: Electrophoretic mobility shift assay of nuclear NF-κB in splenic macrophages. The data set is classed as in vivo, BALB/c mice. Conditions: NS-398 treatment after trauma, over 7 days. The protocol:
NF-κB gel shift oligonucleotide 5′ AGTTGAGGGGACTTTCCCAGGC 3′ (Santa Cruz Laboratories, Santa Cruz, Calif.) was end labeled with (^32P)γATP using polynucleotide kinase T4 (Gibco BRL, Grand Island, N.Y.). End labeled probe was purified from unincorporated (^32P)-γATP using a purification column (Bio-Rad Laboratories) and recovered in tris-EDTA buffer. Samples consisted of adherent macrophages collected after 45 minutes stimulation with 10 ng/mL LPS. Adherent cells were scraped into 1 mL of cold HANKS balanced salt solution. The cell suspension was pelleted after centrifugation in a microcentrifuge for 10 seconds and resuspended in 400 μl cold Buffer A (10 mM HEPES-KOH pH 7.9 at 4° C., 1.5 mM MgCl2, 10 mM KCl, 0.5 mM dithiothreitol, 0.2 mM PMSF) by agitation of the tube. The cells were allowed to swell on ice for 10 minutes, and then vortexed for 10 seconds. Samples were centrifuged for 10 seconds and the supernatant fraction was saved at −70° C. for IκB analysis. The pellet was resuspended in 20-100 μl of cold buffer C (20 mM HEPES-KOH pH 7.9, 25% glycerol, 420 mM NaCl, 1.5 mM MgCl2. 0.2 mM EDTA, 0.5 mM dithiothreitol 0.2 mM PMSF) and incubated on ice for 20 minutes. […] Samples were subjected to electrophoretic separation on a non denaturing 5% poly-acrylamide gel at 30 mA using Tris borate EDTA for 45 minutes and analyzed by exposure to radiographic film (Kodak, Rochester, N.Y.).
Background: In EMSA bound probe runs differently from free probe, usually more slowly.

Data set [5] relates to EP2 receptor. Put plainly: EP2 receptor expression in LPS stimulated human PBMC's via RT-PCR. The data set is classed as cell-based. Particulars: PBMC's after injury, co-incubation with NS-398. The procedure:
(§1) Serial dilutions were made to co-culture cells with a final concentration of […] NS-398 in a 0.1% DMSO. Control and trauma groups were co-cultured with 0.1% DMSO vehicle for comparisons with NS-398 treated groups.

Data set [6] concerns LPS stimulated human PBMC's. Nature of the data set: PGE2, LTB4 and TNF-α production from LPS stimulated PBMC's co-incubated with NS-398. The data set is classed as cell-based. The protocol:
The study included 10 patients sustaining either long-bone fracture or ≧15% total body surface burn and 10 control subjects (protocol approved by the Weill Medical College of Cornell University Internal Research Board). Blood samples were obtained within 12 hours of fracture or burn injury. Immune compromised patients including those with cancer, collagen-vascular diseases, HIV or any recent history of steroid or NSAID drug use were excluded from this study. Each patient sample was run simultaneously with a control sample.
Peripheral venous blood samples were collected into two heparin-EDTA tubes and placed on ice. 6 mL of Histopaque (Sigma Chemical Co., St. Louis, Mo.) was layered into a conical 15 mL tube and 6 mL of undiluted whole blood was gently layered over the top. Tubes were then centrifuged at 1000 rpm for 30 minutes at room temperature. A sterile pasteur pipet was used to gently collect the layer of PBMC's which were then transferred to a new 15 mL tube. Samples were washed twice with 10 mL Ca^+2 and Mg^+2-free Hanks Buffered Salt Solution (Gibco BRL-Life Technologies, Grand Island, N.Y.) and centrifuged at 1100 rpm for 10 minutes. The supernatant was discarded and the pellet resuspended in complete RPMI-1640 (Gibco BRL-Life Technologies, Grand Island, N.Y.) with 10% heat inactivated fetal bovine serum (Gibco BRL-Life Technologies, Grand Island, N.Y.) and 1% antibiotic/antimycotic solution. Cells were then adjusted to a final concentration of 1×10^6 cells/mL and plated. Cells were incubated at 37° C. in a 5% CO2 atmosphere with supernatants harvested at 24 hours and frozen at −70° C. for determination of prostaglandin and cytokine production.
as §1

From US20020006915A1, “Use of COX-2 inhibitors to treat sepsis, complications thereof, and EP receptor modulation” (priority 2000, published 2002) come the findings set out here.

Structures are written as SMILES. Entries after “also recorded” stand apart in the source; their conditions may differ.

On to `CS(=O)(=O)Nc1ccc([N+](=O)[O-])cc1OC1CCCCC1` [NS-398, N-(2-cyclohexyloxy-4-nitrophenyl)methanesulfonamide], for which, in data set [1], the COX-2 expression result is “reduced COX-2 expression to levels similar to that expressed by control cells”. For the same compound, the “Body Wt.” value was determined as 18.3 ± 0.3 g in data set [2] (Control + NS-398, twice a day over 7 days) and 16.7 ± 0.7 g in data set [2] (Trauma + NS-398, twice a day over 7 days). Further, in data set [2] (control versus trauma+NS-398 mice, 7 days after trauma), the “difference in body weight” value is given as “no significant difference”. The “COX-2 mRNA levels” value in data set [3] is on record as “decreased this induction”. In addition, in data set [4], the NF-κB activation result is on record as “a decrease in NF-κB activation”. In addition, in data set [5], the EP2 receptor expression entry is listed as “returns to control levels; also recorded: restored”. Besides, the TNF-α production entry in data set [6] (PBMC's after injury, co-culture with NS-398, P<0.05) is on record as “significantly decreased production”. Further, in data set [6] (PBMC's of injured patients, co-culture with 10μM NS-398, T vs TN P<0.001), the PGE2 production entry is “significantly reduced the production of PGE2”. Also, the LTB4 production result in data set [6] (control cells, co-culture with NS-398, P<0.05) was “significant increase in the production of LTB4”; in data set [6] (trauma cells, co-culture with NS-398, P<0.004), “significant increase in the production of LTB4”.
